In brackets after ≈: the same amount, converted by molar mass. Where two headings read alike, the source gives them in different places.
Legend:
rats = assay: Toxicity in rats, intravenous administration every day for 2 weeks (Experiment 3); assay type: in vivo
Method: Four male rats were used. β-CyD-G2-COOH was dissolved in sterilized water. The solution was intravenously administered to rats in daily doses of 1 ml/kg, 3 ml/kg, and 10 ml/kg (containing β-CyD-G2-COOH in amounts of 100 mg/kg, 300 mg/kg, and 1000 mg/kg, respectively) every day for 2 weeks.
As a control, the toxicity of β-CyD-G2 was studied according to the same manner.

[1] = Stability to acid: half-life in 0.1N HCl solution
Pullulanase = target: T1, Pullulanase (Klebsiella pneumoniae, UniProt P07206); assay: Stability to enzymatic treatment with pullulanase (Experiment 4, Fig. 5); assay type: in vitro ADME; details: 10 mM aqueous cyclodextrin, pullulanase 10 unit/ml, 37°C, 0 to 120 minutes; read-out: decomposed in the enzymatic treatment with pullulanase
T1 construct: purchased
T1 sequence (P07206 20-1090): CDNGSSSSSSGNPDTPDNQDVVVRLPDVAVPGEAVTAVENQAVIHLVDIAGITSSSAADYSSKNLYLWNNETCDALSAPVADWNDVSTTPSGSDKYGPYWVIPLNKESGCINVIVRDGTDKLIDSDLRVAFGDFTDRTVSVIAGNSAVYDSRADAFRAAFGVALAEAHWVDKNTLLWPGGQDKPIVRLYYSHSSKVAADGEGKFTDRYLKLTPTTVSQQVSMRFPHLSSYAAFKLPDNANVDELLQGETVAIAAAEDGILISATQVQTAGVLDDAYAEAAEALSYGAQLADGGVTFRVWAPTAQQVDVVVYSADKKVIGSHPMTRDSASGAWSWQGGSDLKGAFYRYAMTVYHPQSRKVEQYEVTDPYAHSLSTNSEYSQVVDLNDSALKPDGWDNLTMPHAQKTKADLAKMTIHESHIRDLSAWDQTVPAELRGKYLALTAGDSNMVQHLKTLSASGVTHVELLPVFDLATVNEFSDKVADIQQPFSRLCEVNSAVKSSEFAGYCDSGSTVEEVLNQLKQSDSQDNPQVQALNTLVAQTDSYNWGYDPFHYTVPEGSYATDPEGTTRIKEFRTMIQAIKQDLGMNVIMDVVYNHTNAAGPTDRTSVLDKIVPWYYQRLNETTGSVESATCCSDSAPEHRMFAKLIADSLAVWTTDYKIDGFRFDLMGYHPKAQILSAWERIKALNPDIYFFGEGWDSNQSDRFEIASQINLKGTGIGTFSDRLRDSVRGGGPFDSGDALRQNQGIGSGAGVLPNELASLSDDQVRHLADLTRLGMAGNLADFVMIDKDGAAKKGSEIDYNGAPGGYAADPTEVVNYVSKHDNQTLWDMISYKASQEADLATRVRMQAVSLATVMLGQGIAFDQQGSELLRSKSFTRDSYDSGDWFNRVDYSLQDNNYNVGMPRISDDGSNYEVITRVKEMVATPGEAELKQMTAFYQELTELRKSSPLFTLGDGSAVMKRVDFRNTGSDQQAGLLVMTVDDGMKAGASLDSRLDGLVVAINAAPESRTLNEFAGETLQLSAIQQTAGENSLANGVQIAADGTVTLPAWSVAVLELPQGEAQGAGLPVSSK
Method: (§1) As a control, 6-O-α-maltosyl-β-cyclodextrin was used. Test method: Each of prescribed amounts of the following enzymes was added to a 10 mM aqueous solution of cyclodextrin to be tested. The mixture was allowed to stand in a water bath at 37°C. 50 µl of each mixture was sampled, and the enzyme was inactivated by heating it at 100°C for 15 minutes, centrifuged at 15,000 rpm for 5 minutes, filtered through Millipore USY-1 (differential molecular weight: 10,000), diluted 10 times and subjected to HPLC analysis. HPLC analytic conditions: • Column; NH2P-50 (Asahipak) • Mobile phase; CH3CN:H2O=48:52 to which 0.005M PIC reagent was added. • Flow rate; 0.8 ml/minute • Detection; RI The ratio of the remaining cyclodextrin at 0 to 120 minutes was determined from the above HPLC analysis of each sample.
(§2) Each unit is as described in the instruction book of the enzyme obtained from above market. Results: Changes of the ratio of remaining 6-O-α-D-glucuronyl(1→4)-α-D-glucosyl-β-cyclodextrin sodium salt (branched cyclodextrin-carboxylic acid salt) and 6-O-α-maltosyl-β-cyclodextrin (branched cyclodextrin) with the passage of time are shown in Figures 3 to 6. In the figures, black triangles represent the branched cyclodextrin-carboxylic acid salt, and black dots represent the branched cyclodextrin.

[2] = cited from earlier work
[3] = Hemolytic effect on rabbit erythrocytes (Experiment 1, Fig. 1); details: rabbit, erythrocytes, phosphate buffer, pH 7.4
Method: (§4) To this was added sodium 6-O-cyclomaltoheptaosyl-(6→1)-α-D-glucosyl-(4→1)-O-α-D-glucuronate (β-CyD-G2-COONa) was added so that the concentration thereof became 1 to 40 mM. The mixture was shaken at 37°C for 30 minutes and then centrifuged to separate the supernatant. […] The amount of hemoglobin bursted in water instead of isotonic phosphate buffer was used as a standard (100%), and the relative ratio to it was indicated as a hemolytic ratio.
(§5) Further, according to the same manner as that described above except using β-cyclodextrin (β-CyD) instead of β-CyD-G2-COONa, the hemolytic ratio was determined.
(§6) (Control: β-cylodextrin 4 mM, 6-O-α-D-glucosyl-(1→4)-α-D-glucosyl-β-cyclodextrin 8 mM)

[4] = Water-solubility of the cyclodextrins themselves
[5] = water
Glucoamylase = target: T2, Glucoamylase (Rhizopus oryzae, UniProt P07683); assay type: in vitro ADME, Rhizopus sp.; details: 10 mM aqueous cyclodextrin, glucoamylase 2 unit/ml, 37°C, 0 to 120 minutes; compared with 6-O-α-maltosyl-β-cyclodextrin
T2 construct: purchased
Method: as §1, §2

Rabbit erythrocytes [6] = assay: Hemolytic effect on rabbit erythrocytes (Experiment 1, Fig. 1); details: 0.25% rabbit erythrocyte suspension, 10 mM isotonic phosphate buffer (pH 7.4), 1 to 40 mM, 37°C, 30 minutes
Method: as §4, §5, §6

Rabbit erythrocytes [7] = details: phosphate buffer, pH 7.4
Method: as §4, §5, §6

β-Glucuronidase = target: T3, β-Glucuronidase (Bos taurus, UniProt A3KMY8); assay: Stability to enzymatic treatment with β-glucuronidase (Experiment 4, Fig. 6); assay type: in vitro ADME, Calf liver; details: 10 mM aqueous cyclodextrin, β-glucuronidase 700 unit/ml, 37°C, 0 to 120 minutes; compared with 6-O-α-maltosyl-β-cyclodextrin
T3 construct: purchased; host or cells: calf liver (per earlier reading)
T3 sequence (A3KMY8 1-652): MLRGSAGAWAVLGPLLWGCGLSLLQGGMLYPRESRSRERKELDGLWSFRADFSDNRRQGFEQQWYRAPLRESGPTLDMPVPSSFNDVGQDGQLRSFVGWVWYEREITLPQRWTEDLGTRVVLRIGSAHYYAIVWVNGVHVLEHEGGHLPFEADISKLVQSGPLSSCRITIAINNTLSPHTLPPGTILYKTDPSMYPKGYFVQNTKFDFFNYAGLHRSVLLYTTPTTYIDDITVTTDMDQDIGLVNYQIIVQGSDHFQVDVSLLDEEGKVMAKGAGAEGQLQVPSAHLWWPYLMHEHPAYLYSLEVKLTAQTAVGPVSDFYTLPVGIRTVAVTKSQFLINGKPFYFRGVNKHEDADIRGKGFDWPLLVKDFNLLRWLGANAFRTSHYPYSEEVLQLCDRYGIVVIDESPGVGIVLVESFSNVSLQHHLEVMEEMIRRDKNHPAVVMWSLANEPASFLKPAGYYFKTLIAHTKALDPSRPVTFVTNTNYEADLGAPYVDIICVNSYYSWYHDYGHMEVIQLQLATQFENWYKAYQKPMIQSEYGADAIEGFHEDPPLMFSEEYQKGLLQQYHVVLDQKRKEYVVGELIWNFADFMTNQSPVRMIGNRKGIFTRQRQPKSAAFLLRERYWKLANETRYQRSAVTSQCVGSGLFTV
Method: as §1, §2

Human erythrocytes = assay: Hemolytic effect on human erythrocytes (Experiment 2, Fig. 2); assay type: cell-based; details: 0.1M isotonic phosphate buffer (pH 7.4), 5 to 30 mM, 37°C, 30 minutes
Method: Human erythrocytes were added to 0.1M isotonic phosphate buffer (pH 7.4) to prepare a 20% suspension. The 20% erythrocyte suspension (100 µl) was added to an isotonic buffer (4 ml) containing β-CyD-G2-COONa in a concentration of 5 to 30 mM.
The results are in Figure 2 together with the above results for comparison.

[8] = Water-solubility of the antineoplastic agent alone or combined with β-CyD-G2-COONa or β-CyD (Example 1, HPLC); assay type: physicochemical; details: 6-O-(N-chloroacetylcarbamoyl)fumagillol in water, with β-CyD-G2-COONa or β-CyD 1:2 (mol ratio), lyophilized powder 100 mg + water 1 ml, alone: shaken at 25 °C for 4 hours, 0.22 µm filter, read-out: solubilities of the antineoplastic agent
Method: The antineoplastic agent 6-O-(N-chloroacetylcarbamoyl)fumagillol (100 mg) was dissolved in ethanol (4 ml). […] The aqueous solution was added to the ethanol solution and mixed with it with stirring. The resulting solution was lyophilized in vacuo to give powder. Water (1 ml) was added to the powder (100 mg) to obtain a homogeneous aqueous solution, i.e., a composition of the present invention.
On the other hand, the antineoplastic agent alone was added to water, and the mixture was vigorously shaken at 25 °C for 4 hours and filtered through a membrane filter of 0.22 µm.
The antineoplastic agent in the above homogeneous aqueous solution and filtrate was determined by high performance liquid chromatography (HPLC). As a result, the solubilities in Table 1 were obtained.

[9] = Water-solubility of the cephalosporin antibiotic alone or combined with β-CyD-G2-COONa or β-CyD (Example 3, HPLC); assay type: physicochemical; details: cephalosporin antibiotic (free form) in water, with β-CyD-G2-COONa or β-CyD 1:2 (mol ratio), lyophilized powder 100 mg + water 1 ml, alone: shaken at 25 °C for 8 hours, read-out: solubilities of the antibiotic
Method: (§3) The aqueous solution was added to the ethanol solution and mixed with it with stirring. The resulting solution was lyophilized in vacuo to give powder. Water (1 ml) was added to the powder (100 mg) to obtain a homogeneous aqueous solution, i.e., a composition of the present invention. On the other hand, the antibiotic alone was added to water, and the mixture was vigorously shaken at 25 °C for 8 hours and filtered through a membrane filter of 0.22 µm.
The antibiotic in the above homogeneous aqueous solution and filtrate was determined by high performance liquid chromatography (HPLC). As a result, the solubilities in Table 3 were obtained.

[10] = Water-solubility of the antineoplastic agent alone or combined with α-CyD-G2-COONa or α-CyD (Example 2, HPLC); assay type: physicochemical; details: 6-O-(N-chloroacetylcarbamoyl)fumagillol in water, with α-CyD-G2-COONa or α-CyD 1:2 (mol ratio), lyophilized powder 100 mg + water 1 ml, alone: shaken at 25 °C for 4 hours, 0.22 µm filter, read-out: solubilities of the antineoplastic agent
Method: as §3, with “antineoplastic agent” for “antibiotic”, “4” for “8”
The antineoplastic agent in the above homogeneous aqueous solution and filtrate was determined by high performance liquid chromatography (HPLC). As a result, the solubilities in Table 2 were obtained.

[11] = male rats, 100 mg/kg, 300 mg/kg and 1000 mg/kg every day for 2 weeks

T2 sequence (P07683 26-604): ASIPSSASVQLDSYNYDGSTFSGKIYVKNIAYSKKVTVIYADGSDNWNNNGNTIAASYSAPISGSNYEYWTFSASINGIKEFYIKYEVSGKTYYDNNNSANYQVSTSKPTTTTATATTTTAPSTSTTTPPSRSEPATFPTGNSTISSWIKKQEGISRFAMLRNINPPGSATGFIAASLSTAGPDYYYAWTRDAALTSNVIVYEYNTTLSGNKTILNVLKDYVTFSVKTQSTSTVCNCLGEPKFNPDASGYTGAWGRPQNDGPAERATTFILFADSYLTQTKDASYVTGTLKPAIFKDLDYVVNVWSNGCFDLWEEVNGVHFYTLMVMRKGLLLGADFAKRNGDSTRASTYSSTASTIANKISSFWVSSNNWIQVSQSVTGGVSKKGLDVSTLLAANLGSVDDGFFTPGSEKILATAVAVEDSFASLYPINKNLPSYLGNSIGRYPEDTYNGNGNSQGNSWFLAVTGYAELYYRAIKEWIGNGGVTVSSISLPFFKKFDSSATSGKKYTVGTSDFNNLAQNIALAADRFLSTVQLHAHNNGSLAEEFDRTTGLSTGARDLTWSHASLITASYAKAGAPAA

## 6-O-cyclomaltoheptaosyl-(6→1)-α-D-glucosyl-(4→1)-O-α-D-glucuronic acid [β-CyD-G2-COOH]
rats; [11]
  Pathological and histological examination: no serious findings such as necrosis
  death: No rats died
  general appearance, diet intake amount, body weight, urine sediments, hematological examination: No abnormality was observed

## OC[C@H]1O[C@H](O[C@H]2[C@H](O)[C@@H](O)[C@@H](OC[C@H]3O[C@@H]4O[C@H]5[C@H](O)[C@@H](O)[C@@H](O[C@H]6[C@H](O)[C@@H](O)[C@@H](O[C@H]7[C@H](O)[C@@H](O)[C@@H](O[C@H]8[C@H](O)[C@@H](O)[C@@H](O[C@H]9[C@H](O)[C@@H](O)[C@@H](O[C@H]%10[C@H](O)[C@@H](O)[C@@H](O[C@H]3[C@H](O)[C@H]4O)O[C@@H]%10CO)O[C@@H]9CO)O[C@@H]8CO)O[C@@H]7CO)O[C@@H]6CO)O[C@@H]5CO)O[C@@H]2CO)[C@H](O)[C@@H](O)[C@@H]1O [β-CyD-G2, 6-O-α-maltosyl-β-cyclodextrin]
[1]
  half-life: 5 h
Pullulanase
  metabolised at 2 h, 10000 µM: ~60%
[2]; stated as known
  water-solubility relative to that of β-cyclodextrin: several tens of times that of β-cyclodextrin
[3]
  HC50: 8 mM
[4]
  solubility: 1500 mg/mL (≈ 1030 mM)
rats; rats, every day for 2 weeks, 300 mg/kg and 1000 mg/kg groups
  Pathological and histological examination: renal tubule epithelium vacuolation and necrosis
rats; rats, every day for 2 weeks, 1000 mg/kg group
  Urine examination: occult blood and an increase in LDH and NAG
rats; rats, every day for 2 weeks, groups of 300 mg/kg and 1000 mg/kg
  observed signs (general appearance): Auricle flush and peripheral swelling in the extremities

## sodium 6-O-cyclomaltoheptaosyl-(6→1)-α-D-glucosyl-(4→1)-O-α-D-glucuronate [β-CyD-G2-COONa]
[5]
  solubility: > 200 g/100 ml
Glucoamylase
  stability to the enzymatic treatment with glucoamylase: more stable
Rabbit erythrocytes [6]
  hemolytic effect (hemolytic ratio vs cyclodextrin concentration, Figure 1): much less hemolytic effect than that of β-CyD
Rabbit erythrocytes [7]
  HC50: 11 mM
other
  Half-life in 0.1N HCl solution at 60°C: 8 h
β-Glucuronidase
  stability to the enzymatic treatment with β-glucuronidase: more stable
Human erythrocytes
  hemolytic effect (hemolytic ratio vs cyclodextrin concentration, Figure 2): much less hemolytic effect than that of β-CyD, β-CyD-G1 or β-CyD-G2

## OC[C@H]1O[C@@H]2O[C@H]3[C@H](O)[C@@H](O)[C@@H](O[C@H]4[C@H](O)[C@@H](O)[C@@H](O[C@H]5[C@H](O)[C@@H](O)[C@@H](O[C@H]6[C@H](O)[C@@H](O)[C@@H](O[C@H]7[C@H](O)[C@@H](O)[C@@H](O[C@H]8[C@H](O)[C@@H](O)[C@@H](O[C@H]1[C@H](O)[C@H]2O)O[C@@H]8CO)O[C@@H]7CO)O[C@@H]6CO)O[C@@H]5CO)O[C@@H]4CO)O[C@@H]3CO [β-CyD, β-cyclodextrin]
[3]
  HC50: 4 mM

## COC1C(OC(=O)NC(=O)CCl)CCC2(CO2)C1C1(C)OC1CC=C(C)C (centres unmarked) [Antineoplastic agent alone]
[8]
  solubility: 1.8 mg/mL
[9]
  solubility: 2.5 mg/mL
[10]
  solubility: 1.8 mg/mL

## α-cyclodextrin [α-CyD]
[2]; water
  water-solubilities: about 15%

Source: patent EP0657176B1, “Composition containing a water-insoluble or slightly water-soluble compound with enhanced water-solubility” (priority 1993, dated 1995)
